Results published in patent US10131652B2, “Pyrimidinyloxy benzene derivatives as herbicides” (E. I. DU PONT DE NEMOURS AND COMPANY, priority 2014, dated 2018).

Tests used:
Type in all cases: in vivo
[1] = tested on: barnyardgrass (Echinochloa crus-galli); assay: Test C flooded paddy test plant response; conditions: Flood, 250 g ai/ha; scale of 0 to 100 where 0 is no effect and 100 is complete control; 13 to 15 days
In short: (§1)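 Plants grown to the 2-leaf stage; pots flooded to 3 cm above soil, test compounds applied directly to paddy water, depth maintained throughout. Greenhouse for 13 to 15 days, then visual rating versus controls on a 0–100 scale (0 no effect, 100 complete control).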

[2] = tested on: small-flower umbrella sedge (Cyperus difformis); assay: Test C flooded paddy test plant response; conditions: Flood, 250 g ai/ha; scale of 0 to 100 where 0 is no effect and 100 is complete control; 13 to 15 days
In short: as §1

[3] = tested on: ducksalad (Heteranthera limosa); assay: Test C flooded paddy test plant response; conditions: Flood, 250 g ai/ha; scale of 0 to 100 where 0 is no effect and 100 is complete control; 13 to 15 days
In short: as §1

rice (Oryza sativa) = assay: Test C flooded paddy test plant response; conditions: Flood, 250 g ai/ha; scale of 0 to 100 where 0 is no effect and 100 is complete control; 13 to 15 days
In short: as §1

[4] = tested on: blackgrass (Alopecurus myosuroides); assay: Test B postemergence plant response
In short: (§2)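 Values are visual control ratings (0 to 100) recorded approximately 10 days after postemergence application to greenhouse-grown plants of 2 to 10 cm, one- to two-leaf stage, each judged against untreated controls.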

[5] = tested on: galium (catchweed bedstraw, Galium aparine); assay: Test B postemergence plant response
In short: as §2

[6] = tested on: barnyardgrass (Echinochloa crus-galli); assay: Test B pre-/postemergence plant response
In short: (§3)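 Evaluation is visual, about 10 days after application, rating injury from 0 (none) to 100 (complete control) relative to untreated controls. Application was a preemergence soil spray on seeded pots or a postemergence spray on one- to two-leaf plants.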

[7] = tested on: giant foxtail (Setaria faberii); assay: Test B pre-/postemergence plant response
In short: as §3

kochia (Kochia scoparia) = assay: Test B pre-/postemergence plant response
In short: as §3

[8] = tested on: pigweed (Amaranthus retroflexus); assay: Test B pre-/postemergence plant response
In short: as §3

[9] = tested on: wheat (Triticum aestivum); assay: Test B pre-/postemergence plant response
In short: as §3

[10] = tested on: Italian ryegrass (Lolium multiflorum); assay: Test B pre-/postemergence plant response
In short: as §3

[11] = tested on: ragweed (common ragweed, Ambrosia elatior); assay: Test B pre-/postemergence plant response
In short: as §3

corn (Zea mays) = assay: Test B pre-/postemergence plant response
In short: as §3

[12] = 31 g ai/ha, Postemergence, 0 to 100 scale, 0 no effect, 100 complete control
[13] = 125 g ai/ha, postemergence, 0 to 100 scale, 0 no effect, 100 complete control
[14] = Preemergence, 31 g ai/ha, 0 to 100 scale (0 no effect, 100 complete control)
[15] = Preemergence, 125 g ai/ha, 0 to 100 scale where 0 is no effect and 100 is complete control
[16] = Postemergence, 500 g ai/ha, 0 to 100 scale (0 no effect, 100 complete control)
[17] = Preemergence, 500 g ai/ha, 0 to 100 scale where 0 is no effect and 100 is complete control
[18] = 31 g ai/ha, Preemergence, 0 to 100 scale where 0 is no effect and 100 is complete control
[19] = Preemergence, 125 g ai/ha, 0 to 100 scale (0 no effect, 100 complete control)

Row | SMILES | Barnyardgrass plant response rating [1] | Sedge, Umbrella plant response rating [2] | Ducksalad plant response rating [3] | Rice plant response rating (rice (Oryza sativa)) | Plant response rating, Blackgrass [4, 12] | Plant response rating, Blackgrass [4, 13] | Plant response rating, Galium [5, 13] | Plant response rating, Barnyardgrass [6, 12] | Plant response rating, Barnyardgrass [6, 13] | Plant response rating, Barnyardgrass [6, 15] | Plant response rating, Foxtail, Giant [7, 12] | Plant response rating, Foxtail, Giant [7, 13] | Plant response rating, Foxtail, Giant [7, 15] | Plant response rating, Kochia (kochia (Kochia scoparia); [13]) | Plant response rating, Kochia (kochia (Kochia scoparia); [15]) | Plant response rating, Pigweed [8, 13] | Plant response rating, Wheat [9, 13] | Plant response rating, Ryegrass, Italian [10, 13] | Plant response rating, Ragweed [11, 13] | Plant response rating, Corn (corn (Zea mays); [13]) | other results
1 | N#Cc1cc(-c2ccccc2Oc2ncc(Cl)cn2)no1 [Compound 38] | 0 | 0 | 60 | 0 | 0 | 0 | 30 | 0 | 0 | 0 | 0 | 0 | 0 | 30 | 0 | 20 | 0 | 0 | 0 | 0 | Plant response rating, Galium [5, 12]: 20; Barnyardgrass plant response rating [6, 14]: 0; Foxtail, Giant plant response rating [7, 14]: 0; Plant response rating, Kochia (kochia (Kochia scoparia); [12]): 0; Kochia plant response rating (kochia (Kochia scoparia); [14]): 0; Plant response rating, Pigweed [8, 12]: 0; Pigweed plant response rating [8, 14]: 0; Plant response rating, Pigweed [8, 15]: 40; Plant response rating, Wheat [9, 12]: 0; Plant response rating, Ryegrass, Italian [10, 12]: 0; Ryegrass, Italian plant response rating [10, 14]: 0; Plant response rating, Ryegrass, Italian [10, 15]: 0; Plant response rating, Ragweed [11, 12]: 0; Ragweed plant response rating [11, 14]: 0; Plant response rating, Ragweed [11, 15]: 0; Plant response rating, Corn (corn (Zea mays); [12]): 0
2 | CC(C)n1ncnc1-c1ccccc1Oc1ncc(Cl)cn1 [Compound 123] | 0 | 30 | 0 | 0 | – | 0 | 0 | – | 0 | 0 | – | 0 | 0 | 0 | 0 | 0 | 0 | 0 | 0 | 0 | Plant response rating, Blackgrass [4, 16]: 0; Plant response rating, Galium [5, 16]: 0; Plant response rating, Barnyardgrass [6, 16]: 0; Plant response rating, Barnyardgrass [6, 17]: 0; Plant response rating, Foxtail, Giant [7, 16]: 0; Plant response rating, Foxtail, Giant [7, 17]: 0; Plant response rating, Kochia (kochia (Kochia scoparia); [16]): 0; Plant response rating, Kochia (kochia (Kochia scoparia); [17]): 0; Plant response rating, Pigweed [8, 16]: 0; Plant response rating, Pigweed [8, 17]: 0; Plant response rating, Wheat [9, 16]: 0; Plant response rating, Ryegrass, Italian [10, 16]: 0; Plant response rating, Ryegrass, Italian [10, 17]: 0; Plant response rating, Ragweed [11, 16]: 0; Plant response rating, Ragweed [11, 17]: 0; Plant response rating, Corn (corn (Zea mays); [16]): 0
3 | COc1cccc(Oc2ncc(F)cn2)c1-c1cc(C)no1 [Compound 111] | 0 | 0 | 0 | 0 | 0 | 40 | 20 | 0 | 10 | 20 | 0 | 60 | 50 | 30 | 10 | 20 | 0 | 0 | 20 | 10 | Plant response rating, Galium [5, 12]: 10; Plant response rating, Barnyardgrass [6, 18]: 0; Plant response rating, Foxtail, Giant [7, 18]: 0; Plant response rating, Kochia (kochia (Kochia scoparia); [12]): 20; Plant response rating, Kochia (kochia (Kochia scoparia); [18]): 0; Plant response rating, Pigweed [8, 12]: 0; Plant response rating, Pigweed [8, 18]: 10; Plant response rating, Wheat [9, 12]: 0; Plant response rating, Ryegrass, Italian [10, 12]: 0; Plant response rating, Ryegrass, Italian [10, 18]: 0; Plant response rating, Ragweed [11, 12]: 10; Plant response rating, Ragweed [11, 18]: 0; Plant response rating, Corn (corn (Zea mays); [12]): 0
4 | FC(F)Oc1cccc(Oc2ncc(Cl)cn2)c1-c1cc(C(F)F)no1 [Compound 132] | 30 | 75 | 40 | 20 | 20 | 50 | 90 | 20 | 50 | – | 30 | 70 | – | 60 | – | 100 | 10 | 40 | 30 | 30 | Plant response rating, Barnyardgrass [6, 18]: 20; Barnyardgrass plant response rating [6, 19]: 60; Plant response rating, Foxtail, Giant [7, 18]: 60; Foxtail, Giant plant response rating [7, 19]: 90; Plant response rating, Kochia (kochia (Kochia scoparia); [18]): 0; Kochia plant response rating (kochia (Kochia scoparia); [19]): 0; Plant response rating, Pigweed [8, 18]: 90; Pigweed plant response rating [8, 19]: 100; Plant response rating, Ryegrass, Italian [10, 18]: 0; Ryegrass, Italian plant response rating [10, 19]: 30; Plant response rating, Ragweed [11, 18]: 0; Ragweed plant response rating [11, 19]: 40; Plant response rating, Corn (corn (Zea mays); [12]): 10
